From patent publication US11266642B2, “Small molecule inhibitors of HLA-DR3 binding for treating autoimmune thyroiditis” (ICAHN SCHOOL OF MEDICINE AT MOUNT SINAI, priority 2015, dated 2022)

Legend:
[1] = molecular target: T1, HLA-DR3 on VAVY cells (HLA-DRβ1-Arg74 positive) (Homo sapiens, UniProt P01903+P01911, A100K/A102G/A103R/A169T/F55Y/I96L/K41T/L162R/M171V/P40S/Q125H/Q178H/Q39Y/R42S/S66N/T106N/T262R/W38E/Y61H); experiment: Tg.2098 peptide binding to VAVY cells, flow cytometry; type: cell-based; settings: 0.025 mM Ia, 7 h pre-incubation; 0.5 μM Tg.2098, 24 h; 42.7% without Ia
T1 construct: VAVY B-cell line that is homozygous for DR3 (confirmed to contain DRβ1-Arg74); host or cells: VAVY B-cell line
T1 sequence (P01903 26-254, other chains not shown): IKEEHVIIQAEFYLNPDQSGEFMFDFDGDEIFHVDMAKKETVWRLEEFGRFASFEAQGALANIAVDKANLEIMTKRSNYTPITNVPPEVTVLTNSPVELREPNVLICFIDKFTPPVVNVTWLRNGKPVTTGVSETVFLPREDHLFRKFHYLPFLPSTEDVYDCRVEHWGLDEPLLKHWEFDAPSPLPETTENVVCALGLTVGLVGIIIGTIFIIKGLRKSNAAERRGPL
Procedure: VAVY cells (European Collection of Cell Cultures) were cultured in RPMI (ATCC, Manassas, Va.) supplied with 10% FBS (Sigma-Aldrich, St. Louis, Mo.), 1% Penicillin-Streptomycin (Corning, N.Y.), 2 mM glutamine (Corning, N.Y.) and […] ciprofloxacin hydrochloride (Hospira, Lake Forest, Ill.). Cells were grown at 37° C., 5% CO2 and passaged 1-2 times a week. Cells expressing DR2 (National Development and Research Institutes, Inc) were cultured using the same conditions as VAVY cells. N-terminal biotinylated peptide Tg.2098 was used to test for binding to VAVY cells which express HLA-DR3 on their surface (HLA-DRβ1-Arg74 positive). APC Streptavidin (BD Biosciences, Franklin Lakes, N.J.) was used to detect the biotinylated peptides. A scrambled peptide of Tg.2098 (scr2098) was used as a negative control. VAVY cells were seeded at 2.5×10^6 cells/mL in a 24-well plate (BD Biosciences) and pre-incubated for 7 hours with 0.025 mM of compound Ia or 40% Captisol (Ligand Pharmaceuticals, Inc, La Jolla, Calif.) [the vehicle used to dissolve test compound in this experiment], before 0.5 μM Tg.2098 was added. After 24 h incubation, cells were stained with PE mouse anti-human HLA-DR (BD Biosciences) and APC Streptavidin to detect binding of the peptide to VAVY cells and the inhibitory effect of Compound Ia. Inhibition was analyzed by flow cytometry. As a negative control, cells expressing HLA-DR2 were pre-incubated with example Ia or 40% Captisol, before biotinylated myelin basic protein (MBP) 87-99 (known binder to HLA-DR2) was added and incubated for 24 hours. HLA-DR2 cells were stained with PE mouse anti-human HLA-DR and APC Streptavidin to detect binding of biotinylated MBP87-99 to DR2 expressing cells and to assess the inhibitory effect of compound Ia on peptide binding. To confirm the ELISA results we performed binding inhibition studies using the VAVY B-cell line that is homozygous for DR3 (confirmed to contain DRβ1-Arg74). […]

[2] = test system: HLA-DR2; experiment: MBP87-99 binding to DR2 expressing cells, flow cytometry (specificity control); type: cell-based, human; settings: biotinylated MBP87-99, 24 hours
[3] = test system: T-cells of hTg immunized mice; experiment: CFSE T-cell proliferation of splenocytes from hTg immunized NOD-DR3 mice, compound added ex vivo; type: cell-based, mouse; settings: final concentration 0.001 mM
Procedure: Female NOD-DR3 mice, 4-6 weeks old, were injected subcutaneously with human thyroglobulin (hTg) (Cell Sciences, Canton, Mass.) in complete Freund adjuvant (CFA) (Sigma) to induce EAT. Mice were immunized with hTg on day 0 and boosted on day 7; mice were sacrificed on day 21. For some mice, PC61 (anti-CD25) antibody (ATCC) at 7.5 mg/mL was injected i.p. on day (−4) and day 3 to deplete T regulatory (CD25+) cells and augment the autoimmune response to hTg.
Spleen and draining lymph nodes were collected from mice upon sacrifice. The spleens and draining lymph nodes were harvested in complete RPMI (Corning) supplemented with 10% FBS (Sigma-Aldrich,) and 1 mM sodium pyruvate (Sigma-Aldrich). They were cut and pressed in circular motion using a plunger from a 10 mL syringe. The suspension was filtered through a 100 μm cell strainer twice and centrifuged at 200×g for 10 minutes. The supernatant was discarded. […] The pellet was resuspended in RPMI and the cells were counted and plated. […]
The CFSE-labeled cells were plated at 2×10^5 cells per well in 100 μL of medium (RPMI/10% FBS). […] The results were analyzed using Flowjo (Tree Star, Ashland, Oreg.). The stimulation index was calculated by using the following formula: Stimulation index=[% proliferating lymphocytes (hTg, peptide or mitogen-treated)]/[% proliferating lymphocytes (medium-treated)]. […]

binding of Tg.2098 to VAVY cells in the presence of Ia [1]: 16.6%
Structure (SMILES): COc1ccc2cc1Oc1ccc(cc1)C[C@H]1c3c(cc4c(c3Oc3cc5c(cc3OC)CCN(C)[C@@H]5C2)OCO4)CCN1C [Compound Ia, cepharanthine]
block of MBP87-99 binding to DR2 [2]: did not block
activation of T-cells of hTg immunized mice by Tg.2098 ([3]; Tg.2098 20 μg/ml, p=0.0079): significantly blocked
activation of T-cells of hTg immunized mice by hTg ([3]; hTg 40 μg/mL, p=0.0005): significantly blocked
